Converted amounts (≈) assume the structure as drawn.
Experiments:
Format in all cases: cell-based
[1] = tested on: Pasteurella multocida PM 6267 (P 2225 (L386), reference strain, mouse infection strain); assay: MIC, broth-microdilution (CLSI VET01-A4), strain PM 6267; details: Pasteurella multocida strain PM 6267, broth-microdilution; unit assumed
Outline: (§1)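 Doubling dilution series in trays; visual read, MIC = lowest conc. with no visible turbidity; interpretation per CLSI VET01-S3.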

[2] = tested on: Mannheimia haemolytica MH 13093 (XB0472-6014.1, BRD field isolate); assay: MIC, broth-microdilution (CLSI VET01-A4), strain MH 13093; details: Mannheimia haemolytica strain MH 13093, broth-microdilution; unit assumed
Outline: as §1

[3] = tested on: Mannheimia haemolytica MH 10720 (154, BRD field isolate); assay: MIC, broth-microdilution (CLSI VET01-A4), strain MH 10720; details: Mannheimia haemolytica strain MH 10720, broth-microdilution; unit assumed
Outline: as §1

[4] = tested on: Pasteurella multocida PM 12080 (IV102277-0093, BRD field isolate); assay: MIC, broth-microdilution (CLSI VET01-A4), strain PM 12080; details: Pasteurella multocida strain PM 12080, broth-microdilution; unit assumed
Outline: as §1

[5] = tested on: Mannheimia haemolytica MH 12587 (1071, BRD field isolate, macrolide-resistance: erm+, E+); assay: MIC, broth-microdilution (CLSI VET01-A4), strain MH 12587; details: Mannheimia haemolytica strain MH 12587, broth-microdilution; unit assumed
Outline: as §1

[6] = tested on: Pasteurella multocida PM 6391 (ATCC 43137, reference strain); assay: MIC, broth-microdilution (CLSI VET01-A4), strain PM 6391; details: Pasteurella multocida strain PM 6391, broth-microdilution; unit assumed
Outline: as §1

[7] = tested on: Mannheimia haemolytica MH 6357 (M7/2, reference strain, cattle infection strain); assay: MIC, broth-microdilution (CLSI VET01-A4), strain MH 6357; details: Mannheimia haemolytica strain MH 6357, broth-microdilution; unit assumed
Outline: as §1

[8] = tested on: Mannheimia haemolytica MH 6374 (ATCC 33396, reference strain); assay: MIC, broth-microdilution (CLSI VET01-A4), strain MH 6374; details: Mannheimia haemolytica strain MH 6374, broth-microdilution; unit assumed
Outline: as §1

[9] = tested on: Mannheimia haemolytica MH 13065 (XB0446-6003.9, BRD field isolate); assay: MIC, broth-microdilution (CLSI VET01-A4), strain MH 13065; details: Mannheimia haemolytica strain MH 13065, broth-microdilution; unit assumed
Outline: as §1

[10] = tested on: Pasteurella multocida PM 10775 (080130003051, BRD field isolate); assay: MIC, broth-microdilution (CLSI VET01-A4), strain PM 10775; details: Pasteurella multocida strain PM 10775, broth-microdilution; unit assumed
Outline: as §1

Row | MIC PM 6267 [1] [µg/mL] | MIC PM 12080 [4] [µg/mL] | MIC PM 6391 [6] [µg/mL] | MIC PM 10775 [10] [µg/mL] | Structure (SMILES) | MIC MH 13093 [2] [µg/mL] | MIC MH 10720 [3] [µg/mL] | MIC MH 12587 [5] [µg/mL] | MIC MH 6357 [7] [µg/mL] | MIC MH 6374 [8] [µg/mL] | MIC MH 13065 [9] [µg/mL]
1 | 0.8 (≈ 1.65 µM) | ≤ 0.1 | ≤ 0.1 | ≤ 0.1 | CC(C)([C@H](NC(=O)c1ccc(C#Cc2ccc(CNC3CC3)nc2)cc1)C(=O)NO)S(C)(=O)=O [Compound 348] | 0.8 (≈ 1.65 µM) | ≤ 0.1 | 3.1 (≈ 6.4 µM) | 0.8 (≈ 1.65 µM) | 0.8 (≈ 1.65 µM) | 0.8 (≈ 1.65 µM)
2 | 1.6 (≈ 3.18 µM) | 0.4 (≈ 0.796 µM) | 0.8 (≈ 1.59 µM) | ≤ 0.1 | COCCNCc1ccc(C#Cc2ccc(C(=O)N[C@H](C(=O)NO)C(C)(C)S(C)(=O)=O)cc2)cn1 [Compound 349] | 3.1 (≈ 6.17 µM) | 0.8 (≈ 1.59 µM) | 6.3 (≈ 12.5 µM) | 1.6 (≈ 3.18 µM) | 3.1 (≈ 6.17 µM) | 6.3 (≈ 12.5 µM)
3 | 6.3 (≈ 12.2 µM) | 0.4 (≈ 0.777 µM) | 0.8 (≈ 1.55 µM) | ≤ 0.1 | CC(C)(C(NC(=O)c1ccc(C#Cc2ccc(CN3CCOCC3)nc2)cc1)C(=O)NO)S(C)(=O)=O (stereo not drawn) [Compound 350] | 6.3 (≈ 12.2 µM) | 1.6 (≈ 3.11 µM) | 12.5 (≈ 24.3 µM) | 6.3 (≈ 12.2 µM) | 6.3 (≈ 12.2 µM) | 6.3 (≈ 12.2 µM)
4 | 0.4 (≈ 0.748 µM) | ≤ 0.1 | 0.4 (≈ 0.748 µM) | ≤ 0.1 | CC(C)([C@H](NC(=O)c1ccc(C#Cc2ccc(CNCc3ccccc3)nc2)cc1)C(=O)NO)S(C)(=O)=O [Compound 351] | 0.8 (≈ 1.5 µM) | ≤ 0.1 | 1.6 (≈ 2.99 µM) | 0.4 (≈ 0.748 µM) | 0.4 (≈ 0.748 µM) | 1.6 (≈ 2.99 µM)
5 | 0.8 (≈ 1.42 µM) | 0.2 (≈ 0.354 µM) | 0.4 (≈ 0.708 µM) | ≤ 0.1 | COc1ccc(CNCc2ccc(C#Cc3ccc(C(=O)N[C@H](C(=O)NO)C(C)(C)S(C)(=O)=O)cc3)cn2)cc1 [Compound 352] | 1.6 (≈ 2.83 µM) | 0.2 (≈ 0.354 µM) | 3.1 (≈ 5.49 µM) | 0.8 (≈ 1.42 µM) | 0.8 (≈ 1.42 µM) | 1.6 (≈ 2.83 µM)
6 | 3.1 (≈ 5.79 µM) | 0.8 (≈ 1.49 µM) | 1.6 (≈ 2.99 µM) | 0.4 (≈ 0.747 µM) | CC(C)([C@H](NC(=O)c1ccc(C#Cc2ccc(CNCc3ccccn3)nc2)cc1)C(=O)NO)S(C)(=O)=O [Compound 353] | 6.3 (≈ 11.8 µM) | 0.8 (≈ 1.49 µM) | 12.5 (≈ 23.3 µM) | 3.1 (≈ 5.79 µM) | 6.3 (≈ 11.8 µM) | 6.3 (≈ 11.8 µM)
7 | 0.8 (≈ 1.52 µM) | 0.2 (≈ 0.381 µM) | 0.4 (≈ 0.762 µM) | ≤ 0.1 | CC(C)([C@H](NC(=O)c1ccc(C#Cc2ccc(CNCc3ccco3)nc2)cc1)C(=O)NO)S(C)(=O)=O [Compound 354] | 0.8 (≈ 1.52 µM) | 0.2 (≈ 0.381 µM) | 1.6 (≈ 3.05 µM) | 0.4 (≈ 0.762 µM) | 0.8 (≈ 1.52 µM) | 1.6 (≈ 3.05 µM)
8 | 0.8 (≈ 1.52 µM) | ≤ 0.1 | 0.2 (≈ 0.38 µM) | ≤ 0.1 | CC(C)([C@H](NC(=O)c1ccc(C#Cc2ccc(CNCC(F)(F)F)nc2)cc1)C(=O)NO)S(C)(=O)=O [Compound 355] | 1.6 (≈ 3.04 µM) | ≤ 0.1 | 1.6 (≈ 3.04 µM) | 0.8 (≈ 1.52 µM) | 1.6 (≈ 3.04 µM) | 0.8 (≈ 1.52 µM)
9 | 6.3 (≈ 11.7 µM) | 1.6 (≈ 2.98 µM) | 3.1 (≈ 5.78 µM) | 0.2 (≈ 0.373 µM) | CC(C)([C@H](NC(=O)c1ccc(C#Cc2ccc(CNCc3ncccn3)nc2)cc1)C(=O)NO)S(C)(=O)=O [Compound 356] | 12.5 (≈ 23.3 µM) | 3.1 (≈ 5.78 µM) | 12.5 (≈ 23.3 µM) | 6.3 (≈ 11.7 µM) | 6.3 (≈ 11.7 µM) | 6.3 (≈ 11.7 µM)

Source: patent publication US11034650B2, “Compounds useful for treating a Mannheimia haemolytica or Histophilus somni infection” (Intervet Inc., priority 2016, dated 2021)
